What was measured:
[1] = target: T1, recombinant wild type human EGFR kinase domain (Homo sapiens, UniProt P00533); assay: Radiometric protein kinase enzymatic assay; assay type: biochemical; details: text value (FIG. 1)
T1 construct: A recombinant wild type human EGFR kinase domain expressed in Sf9 insect cells; GST; made in house; host or cells: Sf9 insect cells
Text: Except Tarceva® or Erlotinib which was purchased from LC Laboratories, all the screened compounds were purchased from Sigma-Aldrich. A recombinant wild type human EGFR kinase domain expressed in Sf9 insect cells as a GST-fusion protein was used in the enzymatic assay. The recombinant protein was purified by a GSH-affinity column and the purity of the protein was examined by SDS-PAGE/Coomassie staining and the identity was checked by mass spectroscopy. A radiometric protein kinase assay was used for measuring the kinase activity of the EGFR protein kinase. All the assays were performed in 96-well FlashPlates™ from PerkinElmer (Boston, Mass., USA) in a 50 µL, reaction volume. […] The reaction cocktails were incubated at 30° C. for 60 minutes. […] Incorporation of ^33Pi was determined with a microplate scintillation counter. […]
The median value of the counts in column 1 (n=8) of each assay plate was defined as “low control”. This value reflects unspecific binding of radioactivity to the plate in the absence of a protein kinase but in the presence of the substrate. […] The residual activity (in %) for each well of a particular plate was calculated by using the following formula: […]
The residual activities for each concentration and the drug IC50 values were calculated using GraphPad Prism software. […]

H1299 = assay: 2D cell proliferation assay (Alamar Blue), H1299; assay type: cell-based, human; details: Homo sapiens, NCI-H1299; 2D, H1299, 72 h; read-out: IC50
Text: (§1) Nsl-8 was subjected to 2D cell proliferation assays using four NSCLC cell lines (A549 (human adenocarcinomic alveolar basal epithelial cells with k-ras gene mutation), H1299 (human non-small cell lung carcinoma cell line with p53 mutation), H460 (human non-small cell lung carcinoma cell line with k-ras gene mutation), and HCC827 (human NSCLC cells with EGFR mutation of deletion from E746 to A750)) and the results were presented in Table 2. There were eight concentrations used for each drug for determining its IC50. […]. Actinomycin D was a chemotherapeutic drug simply used as a quality control for all the experiments.
(§2) In the 2D cell proliferation assay, cells were cultured in DMEM containing 10% FCS and Penicillin/Streptomycin. For the assays, cells were seeded in 150 μL medium on a 96-well cell culture plate and incubated at 37° C. overnight before the compounds were added. Compounds were prepared as predilution which was 16 fold concentrated to the final assay concentration. A day after cell seeding, 10 μL of prediluted compounds was added to the cells (1:16 dilution). Treatment of cells with 0.1% DMSO or 1% DMSO (for the two top concentrations of nsl-8) and 1.0E-05 M Staurosporine was served as high control (100% viability) and low control (0% viability), respectively. Measurement of the impact of compounds on cell viability was performed as follows: 5000 cells (A549 and HCC827) or 2500 cells (H1299 and H460) were seeded in the inner wells of 96-well-plates in 150 μL complete medium. Next day, compounds were added to the medium to reach the final concentration and then incubated at 37° C. in 5% or 10% CO2 depending on the medium for 72 h. Subsequently 10 μL Alamar Blue reagent was added and fluorescence at 590 nm was measured after 5 h incubation at 37° C. in 5% CO2 using a fluorometer.
(§3) Raw data were converted into percent cell viability relative to high control (solvent 0.1% DMSO or 1% DMSO for the two top concentrations of drug nsl-8) and low control (1.0E-05 M Staurosporine), which were set to 100% and 0%, respectively.

H460 = assay: 2D cell proliferation assay (Alamar Blue), H460; assay type: cell-based, human; details: Homo sapiens, NCI-H460; 2D, H460, 72 h; read-out: IC50
Text: as §1, §2, §3

[2] = test system: four NSCLC cell lines (A549, H1299, H460, HCC827); assay: 2D cell proliferation assay, summary over the NSCLC cell lines; assay type: cell-based; details: Homo sapiens, span over the four NSCLC cell lines
Experimental: There were eight concentrations used for each drug for determining its IC50. […] Actinomycin D was a chemotherapeutic drug simply used as a quality control for all the experiments.
as §2, with “Compounds were prepared as predilution which was 16 fold concentrated to the final assay concentration.” left out, “h.” for “h. Subsequently 10 μL Alamar Blue reagent was added and fluorescence at 590 nm was measured after 5 h incubation at 37° C. in 5% CO2 using a fluorometer.”
as §3

[3] = test system: four NSCLC cell lines (A549, H1299, H460, HCC827); assay: 3D cell proliferation assay, summary over the NSCLC cell lines; assay type: cell-based; details: Homo sapiens, span over the four NSCLC cell lines
Experimental: Drug nsl-8 was further subjected to a 3D cell proliferation assay for assessing its potential in inhibiting the growth of NSCLC tumors. The same four NSCLC cell lines used in 2D proliferation assays were grown in soft agar and the drug was added after the agar has solidified. The drug added cells were then incubated several days until colonies have formed in the solvent control. Subsequently, Alamar Blue which was a cell viability reagent was added and the corresponding fluorescence released was measured as an indirect quantification of colony growth in soft agar.
For each cell line, some 96 well culture plates were prepared. 100 μL of the soft agar bottom layer (0.6% final concentration in complete medium) was poured and left to solidify. 50 μL of the soft agar top layer (0.4% final concentration) containing the corresponding cells and cell number were then added on top, solidified and such 96 well plates were incubated overnight at 37° C. in 10% CO2. Next day, drugs were added at indicated final concentrations into the inner wells of the plate. Subsequently, the assays were incubated in cell culture incubators for the indicated period of time. Finally, the assays were developed using Alamar Blue and upon 3-5 h of incubation at 37 ° C. fluorescence intensity was determined (excitation: 560 nm, emission: 590 nm). […]

T1 sequence (P00533 712-979 limits assumed): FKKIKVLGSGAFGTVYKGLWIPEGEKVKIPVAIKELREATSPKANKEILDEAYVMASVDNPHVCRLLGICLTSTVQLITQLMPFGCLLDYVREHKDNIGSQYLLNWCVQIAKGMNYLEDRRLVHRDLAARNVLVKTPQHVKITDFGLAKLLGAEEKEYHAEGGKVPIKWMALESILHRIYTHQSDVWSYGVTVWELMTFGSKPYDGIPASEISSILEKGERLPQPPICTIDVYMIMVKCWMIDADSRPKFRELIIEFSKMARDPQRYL

IC50 [1]: 515 nM | IC50 (H1299): 6500 nM | IC50 (H460): 2000 nM | IC50 [2]: 2000 to 11000 nM | IC50 [3]: 990 to 13000 nM
SMILES: COc1ccc(-c2ccc3cc(C(=O)O)ccc3c2)cc1C12CC3CC(CC(C3)C1)C2 [nsl-8, 6-[3-(1-adamantyl)-4-methoxyphenyl]-2-naphthalenecarboxylic acid]

Reference: US20160113895A1, “Novel Use of Adapalene in Treating Esophageal Cancer and Gastrointestinal Stromal Tumor” (Biodelight Biotech Inc., priority 2013, published 2016)
